Data published in patent US20200024278A1, “COMPOSITION COMPRISING ANTIBIOTIC COMPOUND AND AN HETEROCYCLIC COMPOUND AND THEIR USE IN PREVENTING OR TREATING BACTERIAL INFECTIONS” (MUTABILIS, priority 2016, published 2020).

Assays:
Test in all cases: MIC, broth microdilution (CLSI), substance alone or ATB combined with compound at 4 or 8 μg/mL
ECL P99 = assay type: cell-based, E. cloacae; conditions: ECL P99; for MIC ATB combined with compound: compound @4 μg/ml
Procedure, shortened: (§1)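 Potentiation format: antibiotic dilution series run with test compound held at 4 or 8 μg/mL, alongside compound-alone MICs. Broth microdilution per CLSI in ca-MHB, 16-20 h at 35° C.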

KPN UFR42 = assay type: cell-based, K. pneumoniae; conditions: KPN UFR42; for MIC ATB combined with compound: compound @4 μg/ml
Procedure, shortened: as §1

KPN BAA-1898 = assay type: cell-based, K. pneumoniae; conditions: KPN BAA-1898; for MIC ATB combined with compound: compound @4 μg/ml
Procedure, shortened: as §1

KPN 6299 = assay type: cell-based, K. pneumoniae; conditions: compound @4 μg/ml
Procedure, shortened: as §1

SPN 49619 = assay type: cell-based, S. pneumoniae; conditions: SPN 49619; for MIC ATB combined with compound: compound @4 μg/ml
Procedure, shortened: as §1

ECO 190317 = assay type: cell-based, E. coli; conditions: ECO 190317; for MIC ATB combined with compound: compound @4 μg/ml
Procedure, shortened: as §1

ECO UFR39 = assay type: cell-based, E. coli; conditions: ECO UFR39; for MIC ATB combined with compound: compound @4 μg/ml
Procedure, shortened: as §1

SAU 29213 = assay type: cell-based, S. aureus; conditions: for MIC ATB combined with compound: compound @4 μg/ml, SAU 29213
Procedure, shortened: as §1

PAE UFR48 = assay type: cell-based, P. aeruginosa; conditions: PAE UFR48; for MIC ATB combined with compound: compound @4 μg/ml
Procedure, shortened: as §1

PAE UFR90 = assay type: cell-based, P. aeruginosa; conditions: PAE UFR90; for MIC ATB combined with compound: compound @4 μg/ml
Procedure, shortened: as §1

PAE 105250 = assay type: cell-based, P. aeruginosa; conditions: PAE 105250; for MIC ATB combined with compound: compound @4 μg/ml
Procedure, shortened: as §1

With `NC[C@@H]1CC(=NOCC(N)=O)[C@@H]2CN1C(=O)N2OS(=O)(=O)[O-].O=C(O)C(F)(F)F.[Na+]` [Example 4, 2,2,2-trifluroacetate and sodium [(2S,5S)-4-(2-amino-2-oxo-ethoxy)imino-2-(azaniumylmethyl)-7-oxo-1,6-diazabicyclo[3.2.1]octan-6-yl] sulfate] the “MIC ATB combined with compound” value (ECL P99; ATB ATM) was less than 0.031 µg/mL, the “MIC ATB combined with compound” value (ECL P99; ATB FEP) was less than 0.031 µg/mL and the “MIC ATB combined with compound” value (ECL P99; ATB FOS) was less than 0.125 µg/mL. The “MIC ATB combined with compound” value (ECL P99; ATB MEM) was less than 0.031 µg/mL, the “MIC ATB combined with compound” value (ECL P99; ATB PIP) was “<=0.031 μg/mL” and the MIC (ECL P99; substance alone) was 0.063 µg/mL. For the same compound, the “MIC ATB combined with compound” value (KPN UFR42; ATB ATM) was 1 µg/mL, the “MIC ATB combined with compound” value (KPN UFR42; ATB FEP) was greater than 32 µg/mL and the “MIC ATB combined with compound” value (KPN UFR42; ATB FOS) was 32 µg/mL. The “MIC ATB combined with compound” value (KPN UFR42; ATB MEM) was greater than 32 µg/mL, the “MIC ATB combined with compound” value (KPN UFR42; ATB PIP) was greater than 32 µg/mL and the MIC (KPN UFR42; substance alone) was greater than 32 µg/mL. For the same compound, the “MIC ATB combined with compound” value (KPN BAA-1898; ATB ATM) was 8 µg/mL, the “MIC ATB combined with compound” value (KPN BAA-1898; ATB FEP) was 0.5 µg/mL and the “MIC ATB combined with compound” value (KPN BAA-1898; ATB FOS) was 32 µg/mL. The “MIC ATB combined with compound” value (KPN BAA-1898; ATB MEM) was 0.5 µg/mL, the “MIC ATB combined with compound” value (KPN BAA-1898; ATB PIP) was greater than 32 µg/mL and the MIC (KPN BAA-1898; substance alone) was greater than 32 µg/mL. For the same compound, the “MIC ATB combined with compound” value (KPN 6299; ATB ATM) was 0.063 µg/mL, the “MIC ATB combined with compound” value (KPN 6299; ATB FEP) was 0.125 µg/mL and the “MIC ATB combined with compound” value (KPN 6299; ATB FOS) was 64 µg/mL. For the same compound, the “MIC ATB combined with compound” value (KPN 6299; ATB MEM) was 0.25 µg/mL, the “MIC ATB combined with compound” value (KPN 6299; ATB PIP) was 4 µg/mL and the “MIC ATB combined with compound” value (SPN 49619; ATB ATM) was greater than 32 µg/mL. For the same compound, the “MIC ATB combined with compound” value (SPN 49619; ATB FEP) was 0.063 µg/mL, the “MIC ATB combined with compound” value (SPN 49619; ATB FOS) was 32 µg/mL and the “MIC ATB combined with compound” value (SPN 49619; ATB MEM) was 0.063 µg/mL. For the same compound, the “MIC ATB combined with compound” value (SPN 49619; ATB PIP) was 0.5 µg/mL, the MIC (SPN 49619; substance alone) was 32 µg/mL and the “MIC ATB combined with compound” value (ECO 190317; ATB ATM) was less than 0.031 µg/mL. The “MIC ATB combined with compound” value (ECO 190317; ATB FEP) was less than 0.031 µg/mL, the “MIC ATB combined with compound” value (ECO 190317; ATB FOS) was less than 0.125 µg/mL and the “MIC ATB combined with compound” value (ECO 190317; ATB MEM) was less than 0.031 µg/mL. For the same compound, the “MIC ATB combined with compound” value (ECO 190317; ATB PIP) was less than 0.031 µg/mL, the MIC (ECO 190317; substance alone) was 0.25 µg/mL and the “MIC ATB combined with compound” value (ECO UFR39; ATB ATM) was less than 0.031 µg/mL. For the same compound, the “MIC ATB combined with compound” value (ECO UFR39; ATB FEP) was less than 0.031 µg/mL, the “MIC ATB combined with compound” value (ECO UFR39; ATB FOS) was less than 0.125 µg/mL and the “MIC ATB combined with compound” value (ECO UFR39; ATB MEM) was less than 0.031 µg/mL. The “MIC ATB combined with compound” value (ECO UFR39; ATB PIP) was 0.063 µg/mL, the MIC (ECO UFR39; substance alone) was 0.25 µg/mL and the “MIC ATB combined with compound” value (SAU 29213; ATB ATM) was greater than 32 µg/mL. The “MIC ATB combined with compound” value (SAU 29213; ATB FEP) was 4 µg/mL, the “MIC ATB combined with compound” value (SAU 29213; ATB FOS) was 2 µg/mL and the “MIC ATB combined with compound” value (SAU 29213; ATB MEM) was 0.125 µg/mL. For the same compound, the “MIC ATB combined with compound” value (SAU 29213; ATB PIP) was 4 µg/mL, the MIC (SAU 29213; substance alone, SAU 29213 (MSSA 29213)) was greater than 32 µg/mL and the “MIC ATB combined with compound” value (PAE UFR48; ATB ATM) was less than 0.031 µg/mL. The “MIC ATB combined with compound” value (PAE UFR48; ATB FEP) was less than 0.031 µg/mL, the “MIC ATB combined with compound” value (PAE UFR48; ATB FOS) was less than 0.125 µg/mL and the “MIC ATB combined with compound” value (PAE UFR48; ATB MEM) was less than 0.031 µg/mL. The “MIC ATB combined with compound” value (PAE UFR48; ATB PIP) was less than 0.031 µg/mL, the MIC (PAE UFR48; substance alone) was 4 µg/mL and the “MIC ATB combined with compound” value (PAE UFR90; ATB ATM) was less than 0.031 µg/mL. The “MIC ATB combined with compound” value (PAE UFR90; ATB FEP) was less than 0.031 µg/mL, the “MIC ATB combined with compound” value (PAE UFR90; ATB FOS) was less than 0.125 µg/mL and the “MIC ATB combined with compound” value (PAE UFR90; ATB MEM) was less than 0.031 µg/mL. The “MIC ATB combined with compound” value (PAE UFR90; ATB PIP) was less than 0.031 µg/mL, the MIC (PAE UFR90; substance alone) was 2 µg/mL and the “MIC ATB combined with compound” value (PAE 105250; ATB ATM) was less than 0.031 µg/mL. The “MIC ATB combined with compound” value (PAE 105250; ATB FEP) was “<=0.031 μg/mL”, the “MIC ATB combined with compound” value (PAE 105250; ATB FOS) was 8 µg/mL and the “MIC ATB combined with compound” value (PAE 105250; ATB MEM) was less than 0.031 µg/mL. For the same compound, the “MIC ATB combined with compound” value (PAE 105250; ATB PIP) was “<=0.031 μg/mL” and the MIC (PAE 105250; substance alone) was 32 µg/mL.
